Laboratory results: US10820591B2, “Substituted sulfonyl amides for controlling animal pests” (Bayer Aktiengesellschaft, priority 2016, dated 2020)

Each compound was assayed on Meloidogyne incognita (assay: Meloidogyne incognita test (sand, lettuce, gall formation)). Conditions: Meloidogyne incognita, 336 h, 4 ppm, after 14 days; read-out: nematicidal efficacy (formation of galls).
Type: in vivo
In short: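 Vessels held sand, diluted compound solution, M. incognita egg/larvae suspension and lettuce seeds, and the plants grew for 14 days. Efficacy in % came from root gall formation: 100% means no galls, 0% means galls equal to the untreated control.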

| SMILES | pest or weed control at 4 ppm [%] |
| --- | --- |
| CCOc1ccc(Cl)c(S(=O)(=O)NC(=O)c2cn(-c3c(F)cccc3F)cn2)c1 [I-356] | 90 |
| CC(C)Oc1ccc(Cl)c(S(=O)(=O)NC(=O)c2cn(-c3c(F)cccc3F)cn2)c1 [I-357] | 90 |

Same assay, conditions: Meloidogyne incognita, 336 h, 20 ppm, after 14 days; read-out: nematicidal efficacy (formation of galls)

| SMILES | pest or weed control at 20 ppm [%] |
| --- | --- |
| COc1ccc(Cl)c(S(=O)(=O)NC(=O)c2cn(-c3cc(Br)cc(Br)c3)cn2)c1 [I-282] | 90 |
| Cc1cc(C)cc(-n2cnc(C(=O)NS(=O)(=O)c3ccccc3Cl)c2)c1 [I-283] | 90 |
| O=C(NS(=O)(=O)c1ccccc1Cl)c1cn(-c2cc(C(F)(F)F)cc(C(F)(F)F)c2)cn1 [I-285] | 90 |
| COc1ccc(Cl)c(S(=O)(=O)NC(=O)c2cn(-c3cc(F)cc(F)c3)cn2)c1 [I-287] | 100 |
| COc1ccc(Cl)c(S(=O)(=O)NC(=O)c2cn(-c3cc(C)cc(C)c3)cn2)c1 [I-288] | 100 |
| O=C(NS(=O)(=O)c1ccccc1Cl)c1cn(-c2cc(Br)cc(Br)c2)cn1 [I-289] | 90 |
| Cc1cc(-n2cnc(C(=O)NS(=O)(=O)c3ccccc3Cl)c2)cc(C(F)(F)F)c1 [I-290] | 100 |
| O=C(NS(=O)(=O)c1c(Cl)cccc1Cl)c1cn(-c2cc(C(F)(F)F)cc(C(F)(F)F)c2)cn1 [I-292] | 90 |
| O=C(NS(=O)(=O)c1c(Cl)cccc1Cl)c1cn(-c2cc(Br)cc(Br)c2)cn1 [I-293] | 100 |
| O=C(NS(=O)(=O)c1ccccc1C(F)(F)F)c1cn(-c2cc(C(F)(F)F)cc(C(F)(F)F)c2)cn1 [I-294] | 90 |
| O=C(NS(=O)(=O)c1ccccc1C(F)(F)F)c1cn(-c2cc(Cl)cc(C(F)(F)F)c2)cn1 [I-295] | 90 |
| O=C(NS(=O)(=O)c1ccccc1C(F)(F)F)c1cn(-c2cc(F)cc(C(F)(F)F)c2)cn1 [I-296] | 90 |
| O=C(NS(=O)(=O)c1c(Cl)cccc1Cl)c1cn(-c2cc(Br)cc(C(F)(F)F)c2)cn1 [I-297] | 90 |
| COc1ccc(Cl)c(S(=O)(=O)NC(=O)c2cn(-c3cc(C(F)(F)F)cc(C(F)(F)F)c3)cn2)c1 [I-298] | 90 |
| Cc1cc(C)cc(-n2cnc(C(=O)NS(=O)(=O)c3c(Cl)cccc3Cl)c2)c1 [I-299] | 90 |
| O=C(NS(=O)(=O)c1ccccc1)c1cn(-c2cc(F)cc(C(F)(F)F)c2)cn1 [I-301] | 100 |
| O=C(NS(=O)(=O)c1ccccc1Cl)c1cn(-c2cc(Cl)c(Cl)c(Cl)c2)cn1 [I-302] | 100 |
| COc1ccc(Cl)c(S(=O)(=O)NC(=O)c2cn(-c3cc(Cl)c(Cl)c(Cl)c3)cn2)c1 [I-303] | 90 |
| O=C(NS(=O)(=O)c1ccccc1)c1cn(-c2cc(Cl)c(Cl)c(Cl)c2)cn1 [I-304] | 90 |
| O=C(NS(=O)(=O)c1c(Cl)cccc1Cl)c1cn(-c2cc(Cl)c(Cl)c(Cl)c2)cn1 [I-305] | 90 |
| O=C(NS(=O)(=O)c1ccc(Cl)cc1Cl)c1cn(-c2cc(Cl)c(Cl)c(Cl)c2)cn1 [I-306] | 90 |
| O=C(NS(=O)(=O)c1ccccc1Cl)c1cn(-c2cc(F)c(F)c(F)c2)cn1 [I-307] | 100 |
| O=C(NS(=O)(=O)c1ccccc1Cl)c1cn(-c2cc(F)c(Br)c(F)c2)cn1 [I-308] | 90 |
| O=C(NS(=O)(=O)c1ccc(Cl)cc1Cl)c1cn(-c2cc(Cl)cc(C(F)(F)F)c2)cn1 [I-309] | 90 |
| O=C(NS(=O)(=O)c1ccccc1Cl)c1cn(-c2cc(F)cc(F)c2Cl)cn1 [I-310] | 100 |

| SMILES | pest or weed control at 20 ppm [%] |
| --- | --- |
| O=C(NS(=O)(=O)c1ccccc1Cl)c1cn(-c2cc(Cl)c(Br)c(Cl)c2)cn1 [I-311] | 90 |
| O=C(NS(=O)(=O)c1ccccc1)c1cn(-c2cc(Cl)c(Br)c(Cl)c2)cn1 [I-312] | 90 |
| O=C(NS(=O)(=O)c1c(Cl)cccc1Cl)c1cn(-c2cc(Cl)c(Br)c(Cl)c2)cn1 [I-313] | 90 |
| Cc1nc(C(=O)NS(=O)(=O)c2ccccc2)cn1-c1cc(Cl)cc(Cl)c1 [I-315] | 100 |
| COc1ccc(Cl)c(S(=O)(=O)NC(=O)c2cn(-c3cc(Cl)cc(Cl)c3)c(C)n2)c1 [I-318] | 100 |
| CCOc1ccc(Cl)c(S(=O)(=O)NC(=O)c2cn(-c3cc(Cl)cc(Cl)c3)c(C)n2)c1 [I-319] | 100 |
| COc1ccc(Cl)c(S(=O)(=O)NC(=O)c2cn(-c3cc(F)cc(F)c3)c(C)n2)c1 [I-320] | 100 |
| COc1ccc(Cl)c(S(=O)(=O)NC(=O)c2cn(-c3cc(F)cc(Cl)c3)c(C)n2)c1 [I-321] | 90 |
| Cc1nc(C(=O)NS(=O)(=O)c2c(Cl)cccc2Cl)cn1-c1cc(F)cc(Cl)c1 [I-322] | 100 |
| Cc1nc(C(=O)NS(=O)(=O)c2c(Cl)cccc2Cl)cn1-c1cc(F)cc(F)c1 [I-323] | 100 |
| CCOc1ccc(Cl)c(S(=O)(=O)NC(=O)c2cn(-c3cc(Cl)cc(C(F)(F)F)c3)c(C)n2)c1 [I-324] | 100 |
| Cc1nc(C(=O)NS(=O)(=O)c2c(Cl)cccc2Cl)cn1-c1cc(Cl)cc(C(F)(F)F)c1 [I-325] | 90 |
| Cc1nc(C(=O)NS(=O)(=O)c2ccccc2Cl)cn1-c1cc(Cl)cc(C(F)(F)F)c1 [I-326] | 100 |
| Cc1nc(C(=O)NS(=O)(=O)c2ccccc2Cl)cn1-c1cc(F)cc(Cl)c1 [I-327] | 100 |
| Cc1nc(C(=O)NS(=O)(=O)c2cc(Cl)ccc2Cl)cn1-c1cc(Cl)cc(Cl)c1 [I-328] | 90 |
| Cc1nc(C(=O)NS(=O)(=O)c2cc(Cl)ccc2Cl)cn1-c1cc(F)cc(F)c1 [I-329] | 100 |
| Cc1nc(C(=O)NS(=O)(=O)c2ccccc2Cl)cn1-c1cc(F)cc(F)c1 [I-331] | 100 |
| COc1ccc(Cl)c(S(=O)(=O)NC(=O)c2cn(-c3cc(F)cc(C(F)(F)F)c3)c(C)n2)c1 [I-332] | 100 |
| Cc1nc(C(=O)NS(=O)(=O)c2ccccc2Cl)cn1-c1cc(F)cc(C(F)(F)F)c1 [I-334] | 100 |
| COc1ccc(F)c(S(=O)(=O)NC(=O)c2cn(-c3cc(Cl)cc(C(F)(F)F)c3)cn2)c1 [I-335] | 90 |
| COc1ccc(Br)c(S(=O)(=O)NC(=O)c2cn(-c3cc(Cl)cc(C(F)(F)F)c3)cn2)c1 [I-336] | 100 |
| CCOc1ccc(Cl)c(S(=O)(=O)NC(=O)c2cn(-c3cc(Cl)cc(C(F)(F)F)c3)cn2)c1 [I-337] | 100 |
| COc1ccc(F)c(S(=O)(=O)NC(=O)c2cn(-c3cc(F)cc(Cl)c3)cn2)c1 [I-338] | 100 |
| COc1ccc(Br)c(S(=O)(=O)NC(=O)c2cn(-c3cc(F)cc(Cl)c3)cn2)c1 [I-339] | 100 |
| CCOc1ccc(Cl)c(S(=O)(=O)NC(=O)c2cn(-c3cc(F)cc(Cl)c3)cn2)c1 [I-340] | 100 |

| SMILES | pest or weed control at 20 ppm [%] |
| --- | --- |
| CC(C)Oc1ccc(Cl)c(S(=O)(=O)NC(=O)c2cn(-c3cc(F)cc(Cl)c3)cn2)c1 [I-341] | 100 |
| Cc1ccc(C)c(S(=O)(=O)NC(=O)c2cn(-c3cc(F)cc(Cl)c3)cn2)c1 [I-342] | 90 |
| O=C(NS(=O)(=O)c1cc(Cn2cccn2)ccc1Cl)c1cn(-c2cc(F)cc(Cl)c2)cn1 [I-343] | 90 |
| CC(C)Oc1ccc(Cl)c(S(=O)(=O)NC(=O)c2cn(-c3cc(Cl)cc(C(F)(F)F)c3)cn2)c1 [I-344] | 90 |
| Cc1ccc(C)c(S(=O)(=O)NC(=O)c2cn(-c3cc(Cl)cc(C(F)(F)F)c3)cn2)c1 [I-345] | 100 |
| COc1ccc(F)c(S(=O)(=O)NC(=O)c2cn(-c3cc(Cl)cc(Cl)c3)cn2)c1 [I-347] | 100 |
| COc1ccc(Br)c(S(=O)(=O)NC(=O)c2cn(-c3cc(Cl)cc(Cl)c3)cn2)c1 [I-348] | 100 |
| CCOc1ccc(Cl)c(S(=O)(=O)NC(=O)c2cn(-c3cc(Cl)cc(Cl)c3)cn2)c1 [I-349] | 100 |
| CC(C)Oc1ccc(Cl)c(S(=O)(=O)NC(=O)c2cn(-c3cc(Cl)cc(Cl)c3)cn2)c1 [I-350] | 100 |
| Cc1ccc(C)c(S(=O)(=O)NC(=O)c2cn(-c3cc(Cl)cc(Cl)c3)cn2)c1 [I-351] | 100 |
| COc1ccc(F)c(S(=O)(=O)NC(=O)c2cn(-c3cc(F)cc(C(F)(F)F)c3)cn2)c1 [I-352] | 100 |
| COc1ccc(Br)c(S(=O)(=O)NC(=O)c2cn(-c3cc(F)cc(C(F)(F)F)c3)cn2)c1 [I-353] | 100 |
| CC(C)Oc1ccc(Cl)c(S(=O)(=O)NC(=O)c2cn(-c3cc(F)cc(C(F)(F)F)c3)cn2)c1 [I-354] | 100 |
| Cc1ccc(C)c(S(=O)(=O)NC(=O)c2cn(-c3cc(F)cc(C(F)(F)F)c3)cn2)c1 [I-355] | 100 |
| Cc1ccc(C)c(S(=O)(=O)NC(=O)c2cn(-c3c(F)cccc3F)cn2)c1 [I-358] | 100 |
| COc1ccc(Cl)c(S(=O)(=O)NC(=O)c2cn(-c3c(F)cccc3F)cn2)c1 [I-359] | 90 |
| COc1ccc(F)c(S(=O)(=O)NC(=O)c2cn(-c3c(F)cccc3F)cn2)c1 [I-360] | 90 |
| COc1ccc(Br)c(S(=O)(=O)NC(=O)c2cn(-c3c(F)cccc3F)cn2)c1 [I-361] | 90 |
| Cc1nc(C(=O)NS(=O)(=O)c2c(Cl)cccc2Cl)cn1-c1c(F)cccc1F [I-362] | 90 |
| COc1ccc(Cl)c(S(=O)(=O)NC(=O)c2cn(-c3c(F)cccc3F)c(C)n2)c1 [I-363] | 90 |
| CCOc1ccc(Cl)c(S(=O)(=O)NC(=O)c2cn(-c3c(F)cccc3F)c(C)n2)c1 [I-364] | 90 |
| Cc1nc(C(=O)NS(=O)(=O)c2cc(Cl)ccc2Cl)cn1-c1c(F)cccc1F [I-365] | 100 |
| Cc1nc(C(=O)NS(=O)(=O)c2cc(OC(C)C)ccc2Cl)cn1-c1cc(Cl)cc(Cl)c1 [I-366] | 100 |
